Experiment [1] concerns PE/CA-PJ49 (PTPRD I1821V) versus PE/CAPJ34 (Clone 12) HNSCC cells. The experiment is described as follows: MTT assay in HNSCC cell lines with endogenous mutant versus WT PTPRD. Type of experiment: cell-based, human. The conditions noted are these: 24 hours, n=3, mutant PTPRD (I1821V) cells vs WT PTPRD cells. As to the method:
To determine if PTPR mutation enhances sensitivity to STAT3 pathway inhibitors, HNSCC cell lines harboring endogenous PTPR mutation were compared with cell lines containing WT PTPRs. Cells were plated at equal density (3×10^4/well), treated with various concentration of the STAT3 inhibitors, Stattic (Sigma-Aldrich, MO), a small molecule inhibitor of STAT3 activation and dimerization, or JSI-124 (Calbiochem, MA) for 24 hours, followed by MTT assay (n=3). EC50 values were determined, with extrapolation at 20 μM, by GraphPad Prism 5 software.
On the technique in general: Tetrazolium assays rely on reduction of a dye to a coloured formazan, in cell work by metabolically active cells.

Experiment [2] concerns PCI-52-SD1 cells expressing PTPRT(R1059L). The experiment can be described thus: Growth inhibition of PCI-52-SD1 cells expressing PTPRT(R1059L) by JAK/STAT inhibitor. It is filed as cell-based, human. The conditions noted are these: 24 hours of treatment; PTPRT(R1059L) cells vs vector control cells, n=4. An excerpt: FIG. 6. Mutation of PTPRT(R1059L) leads to increased sensitivity to STAT3 inhibition in PCI-52-SD1 cells. PCI-52-SD1 cells were infected with retrovirus expressing the PTPRT(R1059L) mutant gene or PTPRT wildtype (WT) versus vector control (pMXs-EGFP vector).
Overall, our models can be used to determine if the mutation detected in a human tumor is important for tumor growth and facilitate selection of the appropriate therapeutic agents.

In experiment [3] the test system is UMSCC-47 cells expressing PIK3CA (WT) or PIK3CA (E542K) mutant. The conditions noted are these: 0 to 10 μM, 72 h; PIK3CA WT or E542K expressing cells vs vector control.
Protocol: Retrovirus-infected UMSCC-47 cells expressing control EGFP gene, PIK3CA (WT) or PIK3CA (E542K) mutant were subjected to BEZ-235 (from 0 to 10 μM) treatment for 72 h followed by growth determinations.
To determine the effects of individual PIK3CA mutations on sensitivity to PI3K pathway inhibitors in HNSCC, we tested the effects of a representative PI3K pathway inhibitor (BEZ-235) in HPV-HNSCC cells engineered to express mutant or WT PIK3CA (E542K) a HNSCC line harboring a PIK3CA mutation.
Experiment [4] relates to UM-SCC47 cells expressing the HRAS(Q61K) mutant. The experiment can be described thus: Growth inhibition of UM-SCC47 cells expressing HRAS(Q61K). The conditions noted are these: 250 nM, 24 hours; HRAS(Q61K) vs HRAS WT and EGFP vector control cells, n=4. Type of experiment: cell-based, human.
Protocol: (A) HRAS wildtype (WT) and HRAS (Q61K) mutant or an EGFP vector control was introduced into the HPV-HSNCC cell line, UM-SCC47, by retroviral infection.
To test whether increased PI3K signaling can be achieved by mutations in HRAS, a hotspot HRAS mutation found in our HNSCC cohort, HRAS(Q61K), was generated. Experiments were performed to determine the effect this mutation had on PI3K activation and response to PI3K pathway inhibition.
A further experiment concerns 9 HNSC cell lines. The experiment can be described thus: Proliferation of a panel of HNSCC cell lines. Type of experiment: cell-based. The conditions noted are these: Homo sapiens; range in 9 HNSC cell lines tested; data not shown; read-out: EC50 (inhibition of proliferation). An excerpt:
(§1) The effect of AZD1480 on STAT3 tyrosine phosphorylation and cell growth was further assessed in a panel of HNSCC cell lines.

Experiment [5] relates to phospho-STAT3 (Tyr705) in UMSCC-1 cells. The experiment can be described thus: pSTAT3 (Tyr705) immunoblotting in HNSCC cell line. It is filed as cell-based, human. The conditions noted are these: increasing concentration, 24 hours, immunoblot. As to the method:
FIG. 13. […] UMSCC-1 cells were treated with increasing concentration of AZD1480. After 24 hours, cells were harvested to obtain cell lysates. Forty micrograms of protein/lane were subjected to electrophoresis and immunoblotted for phosphor-STAT3 (Tyr705) and total STAT3. Beta-tubulin was used as a loading control.
as §1
On the technique in general: Immunoblotting shows a protein as a band on a membrane.

The subject of experiment [6] is HNSCC patient tumorgrafts. The experiment can be described thus: Heterotopic HNSCC patient tumorgrafts in NOD/SCID mice. Type of experiment: in vivo. The protocol: FIG. 12A-B. AZD1480 inhibits HNSCC patient tumorgraft growth in conjunction with reduce pSTAT3 expression. (A) Mice bearing heterotropic HNSCC patient tumorgrafts derived from 2 patients (10 mice per group) were treated with AZD1480 (30 mg/kg) or vehicle control, twice daily by oral gavage. Tumor volumes were measures every other day. Statistical difference was determined at the end of the experiment using the Mann-Whitney two-tailed test. (B) Tumors were harvested at the end of treatment, and whole cell lysates were prepared and subjected to immunoblotting with pSTAT3 (Tyr705) and STAT3 antibody. Beta-tubulin was used to assess protein loading. Densitometry was performed and bar graphs illustrate the cumulative findings from each HNSCC tumorgraph experiment.
In vivo studies have generally relied on xenograft tumors derived from implantation of immortalized HNSCC cell lines into immunocompromised mice. To generate a more clinically relevant platform to assess the antitumor effects of candidate therapies, human tumors were directly inoculated into NOD/SCID mice. To date, implanted tumors from 35 HNSCC patients were obtained according to previously described methods. Twenty-six of these tumors have grown successfully in mice at a median time of 16 weeks (range 6-26 weeks) for a take rate of 74%. […]

A further experiment has as its target WT JAK2 (Homo sapiens, UniProt O60674). The conditions noted are these: read-out: enzyme IC50; cited from earlier work.
The test system of experiment [7] is UM-SCC1 cells expressing mutant PTPRD (P1311T). The experiment can be described thus: MTT survival and STAT3 promoter activity in UM-SCC1 cells expressing mutant PTPRD. Type of experiment: cell-based, human. The conditions noted are these: PTPRD mutant cells compared with controls. As to the method:
FIG. 14. […] UM-SCC1 cells expressing mutant PTPRD (P1311T) or vector control were treated with AZD1480 (5 μm) or DMSO (vehicle) followed by MTT assay to determine % survival relative to vehicle control. Results are mean±SEM, performed in triplicate.
as §1

Here are results for four molecules from patent US9926605B2, “Functional genomics screening platform for head and neck cancer” (University of Pittsburgh—of the Commonwealth System of …, priority 2012, dated 2018).

Where only a bound is given, the exact number is not on record here.

For orientation: IC50 means the midpoint of a concentration-inhibition curve.

Chain of WT JAK2 (O60674 whole entry): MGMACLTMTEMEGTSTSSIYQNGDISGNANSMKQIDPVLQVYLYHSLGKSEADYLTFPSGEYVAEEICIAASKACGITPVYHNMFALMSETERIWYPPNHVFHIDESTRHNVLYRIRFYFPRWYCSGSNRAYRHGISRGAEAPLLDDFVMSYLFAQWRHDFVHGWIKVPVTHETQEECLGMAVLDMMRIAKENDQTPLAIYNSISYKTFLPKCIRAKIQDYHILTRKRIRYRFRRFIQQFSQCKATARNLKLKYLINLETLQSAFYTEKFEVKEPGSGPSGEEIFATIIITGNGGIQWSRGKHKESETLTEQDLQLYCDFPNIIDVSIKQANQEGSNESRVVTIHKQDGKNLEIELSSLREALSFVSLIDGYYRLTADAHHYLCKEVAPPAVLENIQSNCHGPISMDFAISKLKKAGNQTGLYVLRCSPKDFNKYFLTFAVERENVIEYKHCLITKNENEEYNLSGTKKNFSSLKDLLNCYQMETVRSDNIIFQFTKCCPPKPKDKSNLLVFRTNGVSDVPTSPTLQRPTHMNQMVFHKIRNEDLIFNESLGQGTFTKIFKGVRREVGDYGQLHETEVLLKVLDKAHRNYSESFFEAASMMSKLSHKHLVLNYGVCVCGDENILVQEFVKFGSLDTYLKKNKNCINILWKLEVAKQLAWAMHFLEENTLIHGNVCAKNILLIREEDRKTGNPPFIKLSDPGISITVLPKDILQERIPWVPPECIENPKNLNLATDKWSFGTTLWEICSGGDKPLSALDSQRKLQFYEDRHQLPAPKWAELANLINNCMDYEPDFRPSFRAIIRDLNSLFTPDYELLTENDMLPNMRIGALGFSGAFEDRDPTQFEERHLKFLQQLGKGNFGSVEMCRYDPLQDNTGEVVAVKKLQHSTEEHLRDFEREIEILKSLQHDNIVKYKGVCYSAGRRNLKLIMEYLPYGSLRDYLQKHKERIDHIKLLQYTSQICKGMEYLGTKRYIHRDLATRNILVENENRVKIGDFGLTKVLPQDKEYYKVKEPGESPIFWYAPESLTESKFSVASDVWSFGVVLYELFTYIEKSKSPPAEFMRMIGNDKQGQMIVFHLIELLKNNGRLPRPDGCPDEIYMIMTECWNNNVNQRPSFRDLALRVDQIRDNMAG

As to `CC(C)(O)/C=C/C(=O)[C@](C)(O)[C@H]1[C@H](O)C[C@@]2(C)[C@@H]3CC=C4[C@@H](C=C(O)C(=O)C4(C)C)[C@]3(C)C(=O)C[C@]12C` [JSI-124], the “sensitivity to growth inhibitory effects of STAT3 pathway inhibitors” value in experiment [1] was “more sensitive to STAT3 pathways inhibitors”. In addition, the “sensitivity to growth inhibition” value in experiment [2] is “more sensitive to growth inhibition”.
With `O=[N+]([O-])c1ccc2c(c1)S(=O)(=O)C=C2` [Stattic], in experiment [1], the “sensitivity to growth inhibitory effects of STAT3 pathway inhibitors” value is given as “more sensitive to the growth inhibitory effects”.
In the case of `Cn1c(=O)n(-c2ccc(C(C)(C)C#N)cc2)c2c3cc(-c4cnc5ccccc5c4)ccc3ncc21` [BEZ-235], the “sensitivity to BEZ-235 treatment (growth)” value in [3] was “more sensitive to BEZ-235 treatment than vector control transfected cells”. The “sensitivity to growth inhibition” value in experiment [4] is “more sensitive to growth inhibition”.
Regarding `Cc1cc(Nc2nc(N[C@@H](C)c3ncc(F)cn3)ncc2Cl)n[nH]1` [AZD1480, 5-chloro-N2-[(1S)-1-(5-fluoropyrimidin-2-yl)ethyl]-N4-(5-methyl-1H-pyrazol-3-yl)pyrimidine-2,4-diamine], the EC50 with 9 HNSC cell lines is 0.99 to 3.8 µM. In experiment [5], the pSTAT3 expression result is “reduced pSTAT3 expression in a dose- and time-dependent manner”. Moreover, the “antitumor effects (tumorgraft growth)” value in experiment [6] (heterotopic HNSCC patient tumorgrafts in mice, AZD1480 30 mg/kg twice daily by oral gavage) was “demonstrated antitumor effects”. Also, the “expression of pSTAT3 and STAT3 target genes in tumors” value in [6] (heterotopic xenografts from 2 HNSCC human tumors, end of treatment) was “decreased expression of pSTAT3 and STAT3 target genes”. For the same molecule, the half-inhibitory concentration (IC50) at WT JAK2 is under 0.003 µM. Moreover, in experiment [7] (AZD1480 5 μm, MTT), the survival entry is recorded as “decreased survival”. Also, the STAT3 promoter activity result in experiment [7] is “decreased survival and STAT3 promoter activity”.
